For test [1], the target named is T1, S1P5 (Homo sapiens, UniProt Q9H228).
T1 construct: expressed in transfected cells
The experiment in a line: GTPγS binding assay, S1P5. Type of test: biochemical. The conditions noted are these: CHO cells expressing S1P5. From the text: The human S1P5 (GI: 30171332 or GenBank™ accession number AY262689, TREMBL: Q9H228) is cloned by a PCR based method. Lung and spleen cDNA (marathon cDNA) is obtained from BD Biosciences Chlontech (BD Biosciences Chlontech, Palo Alto, Calif. 94303, USA); genomic DNA is isolated from HeLa cells using standard procedures. Following oligonucleotides are used for the PCR reaction: forward primer CACCATGGAGTCGGGGCTGCTGCG (−4 to 20, GenBank™ accession number AY262689) and reverse primer 5′-TCAGTCTGCAGCCGGTTCTGATACCAGAGTC (1197 to 1131, AY262689), the initiation of the translation (ATG) and the stop codon are underlined. The PCR is performed In the presence of 0.2-0.4 μg cDNA, 1× reaction buffer (10× PfuTurbo DNA polymerase buffer, Stratagene, La Jolla, Calif. 92037, USA), 0.5 μM primers, 0.25 mM dNTP's and 2.5 units PfuTurbo DNA polymerase (Stratagene), a first step at 95° C. for 2 min, 30 cycles (30 sec at 95° C., 30 sec at 60° C. and 90 sec at 72° C.) and final step of 10 min at 72° C. The amplified product of around 1100 bp is analyzed by standard agarose gel-electrophoresis. […]
Membrane proteins are prepared from wild type CHO-K1 and the CHO cell clones expressing human S1P4. […] The protein concentration is determined using the Bio Rad Protein Assay and human IgG as standard. […]
A general note: Binding of GTPγS marks nucleotide exchange on a G protein.

The subject of test [2] is CHO. The experiment in a line: Calcium mobilization assay, parental CHO cells. Format: cell-based. The conditions noted are these: Cricetulus griseus. The protocol:
CHO cells are plated in black Costar plate (96 or 384 well, 50,000 cells or 12,500 cells, respectively) in a MEM with FCS and cultured for 20-24 h at 37° C. in a CO2 incubator. After the removal of the culture medium cells are incubated in HBSS medium containing 2 μM Fluo4AM (Molecular Probes, Cat. No, F-1241; 1 mg/ml stock in DMSO), 5 mM probenicid for 1 h at 37° C., rinsed with HBSS buffer, 2.5 mM probenicid and overlaid with the same medium (75 μl for 96-well plates, 50 μl for 384 plates). The plates are transferred to the FLIPR. After measuring the baseline for 40 sec, the agonist in HBSS is added and the fluorescence is measured at intervals of 2 sec for 3 to 5 min. In some cases the cells are pre-treated for 5 h with 50 ng/ml pertussis toxin (Sigma, Cat Nr P2980). […]
The compounds mentioned in this application are tested for specificity, e.g. the activity they have in the parental cell line prior transformation with the S1P4 cDNA and for selectivity on CHO cells lines transformed with the S1P1, S1P2, S1P3, and S1P5. […] For example, S1P4 specific and selective compounds may have an EC50 (apparent EC50) measured at S1P4 that is 10×, preferably 100× lower that that measured in wild type CHO cells or In cell expressing any of the other four S1P receptors.
A general note: Calcium flux is commonly read through the fluorescence of an indicator in the cells.

One may read the EC50 as the concentration needed to bring the measured effect to its halfway point.

T1 sequence (Q9H228 whole entry): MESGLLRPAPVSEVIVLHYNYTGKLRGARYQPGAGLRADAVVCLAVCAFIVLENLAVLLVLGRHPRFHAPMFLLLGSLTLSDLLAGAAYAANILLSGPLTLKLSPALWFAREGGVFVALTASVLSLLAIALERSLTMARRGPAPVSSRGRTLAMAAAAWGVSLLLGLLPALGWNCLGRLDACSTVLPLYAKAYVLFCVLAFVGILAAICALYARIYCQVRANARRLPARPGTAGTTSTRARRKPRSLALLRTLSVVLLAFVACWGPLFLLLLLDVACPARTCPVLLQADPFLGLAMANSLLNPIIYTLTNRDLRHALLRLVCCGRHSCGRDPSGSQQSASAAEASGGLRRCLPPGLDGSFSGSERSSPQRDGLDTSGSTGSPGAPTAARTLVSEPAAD

`NC(CNC(=O)c1cc2c(-c3ccccc3Cc3ccccc3)cccc2[nH]1)C(=O)O` (centres unmarked) [Example 2]: the half-maximal effective concentration (EC50) was above 10 µM in test [1] and above 6 µM in test [2].
